Patent US20260217708A1, “FUSED BENZAZEPINE DERIVATIVES FOR USE IN THE TREATMENT OF CANCER AND EPILEPSY” (UCB BIOPHARMA SRL, priority 2023, published 2026)

What was measured:
system Xc^− [1] = molecular target: T1, system Xc^− (Homo sapiens, UniProt Q9UPY5); assay: Cystine-induced glutamate release assay; format: cell-based; parameters: endogenous in cells; host or cells: H4 cells; conditions: H4 cells, sodium-free HEPES buffer, 50 μM L-Cystine, 2 hours, Amplex Red glutamate readout; for IC50: read-out: pIC50 Cystine-induced glutamate release assay (converted)
T1 sequence (Q9UPY5 1-501): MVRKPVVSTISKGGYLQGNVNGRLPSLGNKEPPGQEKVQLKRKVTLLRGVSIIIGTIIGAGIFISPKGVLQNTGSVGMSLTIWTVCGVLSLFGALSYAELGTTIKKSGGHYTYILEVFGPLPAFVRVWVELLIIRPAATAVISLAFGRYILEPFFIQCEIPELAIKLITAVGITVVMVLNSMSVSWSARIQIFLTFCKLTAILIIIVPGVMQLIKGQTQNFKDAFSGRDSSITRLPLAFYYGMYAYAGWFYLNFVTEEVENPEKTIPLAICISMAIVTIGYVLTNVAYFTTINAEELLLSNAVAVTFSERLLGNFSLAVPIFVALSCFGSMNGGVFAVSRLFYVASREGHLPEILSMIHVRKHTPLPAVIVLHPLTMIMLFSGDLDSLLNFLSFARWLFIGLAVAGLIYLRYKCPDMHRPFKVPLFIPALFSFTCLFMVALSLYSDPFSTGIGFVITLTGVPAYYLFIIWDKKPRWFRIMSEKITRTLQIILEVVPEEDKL
T1 sequence (P08195 1-529 partner): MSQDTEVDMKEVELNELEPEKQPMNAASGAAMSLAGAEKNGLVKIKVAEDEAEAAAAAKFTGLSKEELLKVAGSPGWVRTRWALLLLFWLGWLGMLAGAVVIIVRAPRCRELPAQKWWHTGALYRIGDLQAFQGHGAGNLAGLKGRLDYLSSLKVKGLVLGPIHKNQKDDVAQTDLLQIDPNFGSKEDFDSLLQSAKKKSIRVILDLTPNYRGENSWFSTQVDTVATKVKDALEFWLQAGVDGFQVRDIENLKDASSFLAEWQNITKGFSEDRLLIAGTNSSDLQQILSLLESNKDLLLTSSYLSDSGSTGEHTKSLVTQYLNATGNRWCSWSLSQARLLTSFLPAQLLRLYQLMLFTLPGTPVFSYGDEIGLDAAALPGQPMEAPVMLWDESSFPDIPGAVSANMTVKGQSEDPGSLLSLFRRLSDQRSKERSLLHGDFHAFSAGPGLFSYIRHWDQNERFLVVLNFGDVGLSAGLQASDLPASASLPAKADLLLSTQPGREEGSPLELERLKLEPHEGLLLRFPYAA
Description: (§1) The effect of compounds of Formula (I) on the system Xc^− functionality was examined in two independent cell assays: (i) measurement of cystine-induced glutamate release; and (ii) measurement of [^14C]L-Cystine uptake.
(§2) As described above, System Xc^−, also known as the cystine/glutamate antiporter, is an amino acid transporter that mediates the extrusion of intracellular L-glutamate outside the cell and the uptake of extracellular L-cystine into the cell.
(§3) By measuring respectively, the concentration of glutamate released outside the cell and the L-cystine uptaken in the cell, with increasing concentrations of compounds of formula (I) according to the present invention, the efficacy of said compounds to inhibit the System Xc^− function can be evaluated.
(§4) The efficacy of the compounds to inhibit system Xc^− is represented by measuring the IC50 which corresponds to the concentration of compound necessary to inhibit 50% of the signals from the two control groups; DMSO 1% and Erastin 50 μM in the respective assays. pIC50 values correspond to −log of the IC50 in Molar.
Measurement of cystine-induced glutamate release indicates levels of glutamate (outside of the cell) that are dependent on system Xc^− antiporter function. Upon the addition of L-Cystine to H4 cells, intracellular glutamate is counter-transported and exported in the supernatant.
In this assay, the medium is devoid of sodium to prevent the transport of glutamate by sodium-dependent excitatory amino acid transporters (EAATs). H4 cells were plated on 384-well culture plate at 1×10^4 cells/well in Dulbecco's Modified Eagle Medium (DMEM) with L-glutamine, penicillin/streptomycin and 10% fetal bovine serum (all from ThermoFisher Scientific) and incubated in a humidified CO2 incubator at 37° C. After 2 days, cells were washed 4 times with prewarmed sodium-free HEPES buffer (contents in mM: HEPES 10, KCl 5.4, CaCl2 2.5, MgCl2 1, KH2PO4 0.4, D-Glucose 5, Choline chloride 140), pH 7.4. Glutamate release was induced by addition of 50 μM of L-Cystine (Sigma-Aldrich), together with a test compound of Formula (I) at 1% final DMSO concentration. After 2 hours of incubation in the culture incubator, supernatants were transferred to a low-binding polypropylene 384-well plate to determine L-glutamate concentration using Amplex™ Red Glutamic Acid Assay Kit (ThermoFisher Scientific). Briefly, 10 μL of Amplex™ Red working solution was added to 10 μL of the supernatant, then the mixture was incubated for 30 min at 37° C. Fluorescence intensity was measured by EnVision microplate reader (PerkinElmer).

system Xc^− [2] = molecular target: T1, system Xc^−; assay: [^14C]L-Cystine uptake assay; format: cell-based; parameters: endogenous in cells; host or cells: H4 cells; conditions: H4 cells, sodium-free HEPES buffer, 0.5 μM L-[14C]Cystine and 4.5 μM L-Cystine, 1 hour at 37° C.; for IC50: read-out: pIC50 [^14C] L-Cystine uptake assay (converted)
Description: as §1, §2, §3, §4
In this assay, the medium is devoid of sodium to prevent the transport of glutamate by sodium-dependent excitatory amino acid transporters (EAATs). H4 cells were plated on a 96-well CytoStar-T scintillating microplate (PerkinElmer) at 5×10^4 cells/well in the medium described above. After 1 day, cells were washed one time with the sodium-free HEPES buffer and preincubated with test compounds of Formula (I) (1% final DMSO) for 15 min. Uptake was initiated by adding 0.5 μM L-[1,2, 1′,2′-^14C]Cystine (0.02 mCi/mL, PerkinElmer, Waltham, US) and 4.5 μM L-Cystine (Sigma-Aldrich). After 1 hour at 37° C., plates were counted in a MicroBeta^2 microplate counter (PerkinElmer).

| IC50 (system Xc^− [1]) | IC50 (system Xc^− [2]) | SMILES | pIC50 Cystine-induced glutamate release assay (system Xc^− [1]) | pIC50 [^14C] L-Cystine uptake assay (system Xc^− [2]) |
| --- | --- | --- | --- | --- |
| 0.1 to 0.501 µM | 0.0398 to 0.1 µM | Cc1cc2c(c(F)n1)-c1cccnc1[C@H](C)C(=O)N2CC(=O)Nc1ccc(C(F)(F)F)cc1 (single isomer, unassigned) [#191] |  |  |
| < 0.0158 µM | < 0.0158 µM | Cc1cc2c(c(F)n1)-c1cccnc1[C@@H](C)C(=O)N2CC(=O)Nc1ccc(C(F)(F)F)cc1 (single isomer, unassigned) [#192] |  |  |
| < 0.0158 µM | < 0.0158 µM | Cc1cc2c(c(F)n1)-c1cccnc1[C@@H](F)C(=O)N2CC(=O)Nc1ccc(C(F)(F)F)cc1 (single isomer, unassigned) [#195, Enantiomer (10R) or (10S) of 2-(3,10-difluoro-5-methyl-9-oxo-4,8,12-triazatricyclo[9.4.0.0^2,7]pentadeca-1(11),2(7),3,5,12,14-hexaen-8-yl)-N-[4-(trifluoromethyl)phenyl]acetamide] |  |  |
| < 0.0158 µM | < 0.0158 µM | Cc1cc2c(c(Cl)n1)-c1cccnc1[C@@H](C)C(=O)N2CC(=O)Nc1ccc(C(F)(F)F)cc1 (single isomer, unassigned) [#197, Enantiomer (10R) or (10S) of 2-[3-chloro-5,10-dimethyl-9-oxo-4,8,12-triazatricyclo[9.4.0.0^2,7]pentadeca-1(11),2,4,6,12,14-hexaen-8-yl]-N-[4-(trifluoromethyl)phenyl]acetamide] |  |  |
| 0.0158 to 0.0398 µM | < 0.0158 µM | Cc1cc2c(c(F)n1)-c1cccnc1[C@@H](C)C(=O)N2CC(=O)Nc1ccc(Cl)c(F)c1 (single isomer, unassigned) [#200, Enantiomer (10R) or (10S) of N-(4-chloro-3-fluoro-phenyl)-2-[3-fluoro-5,10-dimethyl-9-oxo-4,8,12-triazatricyclo[9.4.0.0^2,7]pentadeca-1(11),2(7),3,5,12,14-hexaen-8-yl]acetamide] |  |  |
| 0.0398 to 0.1 µM | 0.0158 to 0.0398 µM | Cc1cc2c(c(F)n1)-c1cncnc1[C@@H](C)C(=O)N2CC(=O)Nc1ccc(C(F)(F)F)cc1 (single isomer, unassigned) [#202, Enantiomer (8R) or (8S) of 2-[15-fluoro-8,13-dimethyl-9-oxo-4,6,10,14-tetrazatricyclo[9.4.0.0^2,7]pentadeca-1(15),2(7),3,5,11,13-hexaen-10-yl]-N-[4-(trifluoromethyl)phenyl]acetamide] |  |  |
| 0.0158 to 0.0398 µM | < 0.0158 µM | [2H]C([2H])([2H])[C@H]1C(=O)N(CC(=O)Nc2ccc(C(F)(F)F)cc2)c2cc(C)nc(F)c2-c2cccnc21 (single isomer, unassigned) [#203, Enantiomer (10R) or (10S) of 2-[3-fluoro-5-methyl-9-oxo-10-(trideuteriomethyl)-4,8,12-triazatricyclo[9.4.0.0^2,7]pentadeca-1(15),2(7),3,5,11,13-hexaen-8-yl]-N-[4-(trifluoromethyl)phenyl]acetamide] |  |  |
| 0.0398 to 0.1 µM | < 0.0158 µM | Cc1cc2c(c(F)n1)-c1ccc(C)nc1[C@@H](C)C(=O)N2CC(=O)Nc1ccc(C(F)(F)F)cc1 (single isomer, unassigned) [#204, Enantiomer (10R) or (10S) of 2-[3-fluoro-5,10,13-trimethyl-9-oxo-4,8,12-triazatricyclo[9.4.0.0^2,7]pentadeca-1(11),2(7),3,5,12,14-hexaen-8-yl]-N-[4-(trifluoromethyl)phenyl]acetamide] |  |  |

Continued, molecule first:

| SMILES | IC50 (system Xc^− [1]) | IC50 (system Xc^− [2]) | pIC50 Cystine-induced glutamate release assay (system Xc^− [1]) | pIC50 [^14C] L-Cystine uptake assay (system Xc^− [2]) |
| --- | --- | --- | --- | --- |
| Cc1cc2c(c(Cl)n1)-c1ccccc1CC(=O)N2CC(=O)Nc1ccc(C(F)(F)F)cc1 (single isomer, unassigned) [#190, Atropisomer aS or aR of 2-(1-chloro-3-methyl-6-oxo-7H-pyrido[4,3-d][3]benzazepin-5-yl)-N-[4-(trifluoromethyl)phenyl]acetamide] |  |  | A (about 6.3 ≤ pIC50 ≤ about 7.00) | B (about 7.00 < pIC50 ≤ about 7.40) |
| O=C(CN1C(=O)Cc2cc(F)ccc2-c2c1ccnc2Cl)Nc1ccc(C(F)(F)F)cc1 (single isomer, unassigned) [#193, Atropisomer aR or aS of 2-(1-chloro-9-fluoro-6-oxo-7H-pyrido[4,3-d][3]benzazepin-5-yl)-N-[4-(trifluoromethyl)phenyl]acetamide] |  |  | C (about 7.40 < pIC50 ≤ about 7.80) | D (plC50 > about 7.80) |
| Cc1cc2c(c(C(F)F)n1)-c1ccccc1CC(=O)N2CC(=O)Nc1ccc(C(F)(F)F)cc1 (single isomer, unassigned) [#194, Atropisomer aR or aS of 2-[1-(difluoromethyl)-3-methyl-6-oxo-7H-pyrido[4,3-d][3]benzazepin-5-yl]-N-[4-(trifluoromethyl)phenyl]acetamide] |  |  | C (about 7.40 < pIC50 ≤ about 7.80) | D (plC50 > about 7.80) |
| Cc1cc2c(c(F)n1)-c1ccnn1[C@@H](C)C(=O)N2CC(=O)Nc1ccc(C(F)(F)F)cc1 (single isomer, unassigned) [#198, Enantiomer (7R) or (7S) of 2-[14-fluoro-7,12-dimethyl-8-oxo-5,6,9,13-tetrazatricyclo[8.4.0.0^2,6]tetradeca-1(10),2,4,11,13-pentaen-9-yl]-N-[4-(trifluoromethyl)phenyl]acetamide] | 0.0398 to 0.1 µM | 0.0398 to 0.1 µM |  |  |
| CO[C@H]1C(=O)N(CC(=O)Nc2ccc(C(F)(F)F)cc2)c2cc(C)nc(Cl)c2-c2ccccc21 (single isomer, unassigned) [#199, Entnaiomer (7R) or (7S) of 2-[1-chloro-7-methoxy-3-methyl-6-oxo-7H-pyrido[4,3-d][3]benzazepin-5-yl]-N-[4-(trifluoromethyl)phenyl]acetamide] | 0.0158 to 0.0398 µM | < 0.0158 µM |  |  |
| Cc1cc2c(cn1)-c1cccnc1[C@@H](C)C(=O)N2CC(=O)Nc1ccc(C(F)(F)F)cc1 (single isomer, unassigned) [#201, Enantiomer (10R) or (10S) of 2-[5,10-dimethyl-9-oxo-4,8,12-triazatricyclo[9.4.0.0^2,7]pentadeca-1(11),2(7),3,5,12,14-hexaen-8-yl]-N-[4-(trifluoromethyl)phenyl]acetamide] | 0.0158 to 0.0398 µM | < 0.0158 µM |  |  |
